The values below come from US20260376293A1, “METHODS FOR STUDYING GPR158 PHARMACOLOGY AND IDENTIFICATION OF ITS LIGANDS” (UNIVERSITY OF FLORIDA RESEARCH FOUNDATION, INCORPORATED, priority 2022, published 2026).

This test deals with layer V pyramidal neurons. Kind of test: Whole cell recordings, layer V prelimbic cortex neurons, WT mice. It is filed as cell-based, mouse. The following applies: glycine 1 mM. The method, then: FIGS. 15A-15H. Effect of glycine and taurine on excitability of layer V neurons and membrane properties of layer II/III neurons in wild type and GPR158 knockout mice. A) Representative traces of voltage responses to a 200 pA current ramp injection obtained from layer V pyramidal neurons in WT mice under control conditions and during bath application of glycine (1 mM). B) Quantification of glycine effects on neuronal excitability by number of action potentials fired in response to 200 pA current ramp under control condition and glycine application (n=4 neurons/3 mice). Nonparametric t-test; Wilcoxon test, ns=p>0.05. C) Quantification of glycine effects on neuronal excitability by rheobase current under control condition and glycine application (n=4 neurons/3 mice). Nonparametric t-test; Wilcoxon test, ns=p>0.05. […]
Electrophysiological recordings from layer II-III and layer V neurons of the prelimbic cortex were performed with C57Bl6 mice of either sex aged between 6-12 weeks. […] The Rheobase current was defined as the minimum current necessary to elicit the first AP and changes in neuronal excitability were assessed by counting the number of spikes evoked in response to 1-s depolarizing ramp ranging from 0 to 200 pA with a 20-s intertrial interval. […]

Consider `NCC(=O)O` [glycine], for which the “intrinsic excitability of layer V neurons” value is “did not produce any changes”. Further, the resting membrane potential entry (layer V) is recorded as “ns”.
